In patent US7763585B2, “Methods for inhibiting tumor cell proliferation” (priority 2003, dated 2010):

Legend:
[1] = test system: normal NIH3T3 fibroblasts; assay: TUNEL staining for apoptosis, normal fibroblasts; assay type: cell-based, mouse; details: 48 h treatment, FIG. 7
Method: FIG. 7 is a photograph showing induction of apoptosis by platinum complexes. Normal NIH3T3 fibroblasts and their v-Src-transformed counterparts were treated with platinum complexes for 48 h and analyzed for evidence of DNA damage using TUNEL staining kit.
Proliferating cells were counted by phase-contrast microscopy for viable cells (using trypan blue exclusion. TUNEL staining was carried according to supplier's instructions to detect apoptotic cells. Cells (NIH3T3 or NIH3T3/v-Src) were first treated with or without compounds 24-48 h prior to staining.
Studies have established a critical role for constitutive Stat3 signaling in the survival of transformed and tumor cells (Catlett-Falcone et al., 1999a; Grandis et al., 2000a; Epling-Burnette et al., 2001; Bowman et al., 2000b; Grandis et al., 2000b; Horiguchi et al., 2002). Effects of the subject platinum compounds on viability and survival of malignant cells were evaluated. To determine whether inhibition of persistently-active Stat3 by the subject compounds results in apoptosis, Src-transformed and normal mouse fibroblasts were treated with the subject platinum compounds and subjected to TUNEL staining for evidence of apoptosis.

[2] = test system: human tumor cells that do not contain constitutively-active Stat3; assay: Cell proliferation ([3H]-thymidine incorporation) of human tumor cells without constitutively-active Stat3; assay type: cell-based; details: FIG. 6; reduction in growth rate but not growth inhibitory
Description: FIGS. 6A and 6B show the effects of platinum complexes on cell proliferation and viability. […] Values are the mean and S.D. of 3-4 independent determinations.
The effects of platinum complexes on cell proliferation measured by [^3H]-thymidine incorporation were investigated.

[3] = test system: Stat3; assay: EMSA of nuclear extracts from treated cells with constitutively-activated Stat3; assay type: cell-based, mouse and human; details: Src-transformed fibroblasts and human tumor cells, FIG. 3
Method: FIG. 3 is a photograph showing the evaluation of effects of platinum complexes on Stat3 activation analyzed by EMSA. Nuclear extracts prepared from malignant cells that contain constitutively-activated Stat3 and treated with platinum complexes for the indicated times were analyzed by EMSA using hSIE oligonucleotide probe. Extracts were prepared from v-Src-transformed NIH3T3/v-Src; human breast carcinoma MDA-MB-231; MDA-MB-435; and […]. Position of Stat3:DNA complex in gel is shown.
Nuclear extracts were prepared from cell lines and used for EMSA as previously described (Turkson et al., 1998; Yu et al., 1995; Garcia et al., 1997). In some cases, cells were pre-treated with platinum complexes for the indicated times prior to harvesting. Where cells were stimulated with EGF (6 ng/ml), duration of treatment was 15 min. Nuclear extracts were pre-incubated with compounds for 30 min at room temperature prior to incubation with radiolabeled probe. The ^32P-radiolabeled oligonucleotide probes used are hSIE (high affinity sis-inducible element, m67 variant, 5′-[…]-3′) (SEQ ID NO:1) that binds both Stat1 and Stat3 (Garcia et al., 1997; Wagner et al., 1990), MGFe (mammary gland factor element from the bovine β-casein gene promoter, 5′-[…]-3′) (SEQ ID NO:2) that binds Stat1 and Stat5 (Gouilleux et al., 1995; Seidel et al., 1995), the NF-κB binding oligo (5′-[…]-3′) (SEQ ID NO:3), and the oligonucleotide sequence from the DHFR promoter that binds E2F1.
The effects of platinum complexes on persistent activation of Stat3 in Src-transformed fibroblasts and human tumor cells were investigated. […] These studies were then extended to evaluate the effects of the platinum complexes on Stat3 transcriptional activity.

[4] = test system: Stat3-independent luciferase reporter (pRLSRE); assay: Stat3-independent renilla luciferase reporter in NIH3T3/v-Src/pRLSRE; assay type: cell-based, mouse; details: FIG. 4
Method: FIGS. 4A-B show inhibition of Stat3-mediated gene expression in intact cells by platinum complexes. v-Src-transformed mouse fibroblasts that stably express Stat3-dependent (NIH3T3/v-Src/pLucTKS3) and Stat3-independent (NIH3T3/v-Src/pRLSRE) luciferase reporters were treated with platinum complexes for the indicated times. Cytosolic extracts were then prepared from cells for Stat3-dependent firefly luciferase activity (FIG. 4A) and Stat3-independent renilla luciferase measurements (FIG. 4B). Values are the means and S.D. of five independent assays. […]
Cytosolic lysates preparation from fibroblasts for luciferase assays or from baculovirus-infected Sf-9 insect cells have been previously described (Turkson et al., 1998; Turkson et al., 2001; Turkson et al., 1999; Zhang et al., 2000). Luciferase assays were performed as outlined in the supplier's (Promega) manual and measured with a luminometer. […]

Structure (SMILES) | Apoptosis (TUNEL staining) in normal fibroblasts [1] | Growth of human tumor cells that do not contain constitutively-active Stat3 [2] | Inhibition of constitutive Stat3 activation in treated cells (EMSA of nuclear extracts) [3] | Induction of Stat3-independent luciferase activity [4]
O=[N+]([O-])[Pt]1([Cl])([Cl])([Cl])[NH]CC[NH]1 [ISS CPA-1] | marginal degree of apoptosis | marginal effect | strong inhibition | little or no effect
[NH2][Pt]([NH2])([Cl])([Cl])([Cl])[N+](=O)[O-] [ISS CPA-7] | marginal degree of apoptosis | marginal effect | strong inhibition | little or no effect
